Here are results for 37 compounds from patent US9199927B2, “Guanidinobenzoic acid compound” (Astellas Pharma Inc., priority 2011, dated 2015).

pIC50: −log10 of the molar value. Counter-ions that a name gives are not always drawn. Like-named read-outs stand apart in the source and are kept apart here.

A word on the pIC50: it is −log10 of the IC50, conventionally taken in molar units.

For assay [1], the system named is ICR mice. Put plainly: Increasing study of fecal protein concentration in mice. As to conditions: Mus musculus, 5 mg/kg oral, feces collected 3 to 9 hours after, control = 1, read-out: protein increasing activity in feces, fold vs control. In kind it is in vivo. The procedure:
2. Increasing Study of Fecal Protein Concentration in Mice
For the experiment, 6-weeks old ICR mice (male) were used, and the experiment was carried out in five per group. After fasting the mice for 15 hours, the control group was forcibly orally administered with a 0.5% methyl cellulose (MC) solution, and the test drug group was forcibly orally administered (5 mg/kg) with a solution or suspension obtained by dissolving or suspending the compound in the 0.5% MC solution. The fasting was stopped immediately thereafter, free feeding (CE-2) started and then the feces were collected from after 3 hours to after 9 hours. All of the obtained feces were dissolved and suspended in 6 mL of distilled water, and centrifuged for 10 minutes at 3000 rpm. The protein concentration in the supernatant was measured by a Bradford method, and the amount of the protein in 1 g of feces was calculated by dividing the protein concentration in the feces by the total weight of feces. Further, the efficacy was investigated from the ratio to the control. For the compounds that were evaluated multiple times, the average values were calculated.
For some representative compounds, the protein increasing activities in feces are shown in Table 2, assuming a value for the control as 1. Ex in the table represents the Example No. as denoted below of the test compound.

The target of assay [2] is human recombinant trypsin (r-h trypsin) (Homo sapiens (Human), UniProt P07477). Put plainly: Inhibitory activity of trypsin enzyme (human recombinant trypsin, BZiPAR fluorescent substrate). It counts as biochemical. As to conditions: human recombinant trypsin 0.088 μg/mL, 30 minutes at room temperature. The procedure: (§1) 1. Inhibitory Activity of Trypsin Enzyme in Humans and Mice
(§2) In the experiment, human recombinant trypsin (r-h trypsin; manufactured by WAKO, cat. #206-17171) and mouse trypsin (m-trypsin; purified from the mouse small intestine contents by the present Company) were used.
(§3) The outline of the measurement method is shown below.
(§4) The compound was dissolved in dimethyl sulfoxide (DMSO), and diluted to an arbitrary concentration (A). A was 100-fold diluted with a buffer (0.1 M Tris (pH 8.0), 0.15 M NaCl, 10 mM CaCl2, 0.05% Brij38) (B). The r-h trypsin was diluted with a buffer to 0.088 μg/mL, and the m-trypsin was diluted with a buffer to 1/50 (C). […] The substrate solution of a substrate for the enzyme reaction, BZiPAR, (Rhodamine Reference Substrate) was diluted with a buffer to 5 μmol/L (D). B; 5 μL, C; 5 μL, and D; 10 μL were added to a 384-plate, and incubated at room temperature for 30 minutes. The fluorescent signals were detected with Ex/Em=497/520 using Tecan Safire Fluorometer. […] Based on the obtained inhibitory rates, IC50 values (nM) were calculated from the non-linear regression. The test was carried out in the same manner, using camostat as a control compound.
(§5) Ex in the table represents the Example No. as denoted below.

Assay [3] deals with mouse trypsin (m-trypsin). Put plainly: Inhibitory activity of trypsin enzyme (mouse trypsin purified from small intestine contents, BZiPAR fluorescent substrate). It counts as biochemical. To be noted: mouse trypsin diluted 1/50, BZiPAR substrate, 30 minutes at room temperature.
Description: as §1, §2
The method to extract the trypsin from the mouse small intestine is shown below.
The small intestine contents and the gastrointestinal tract of 10 mice were suspended in PBS using Polytron and subjected to centrifugation at 15,000×g several times. The supernatant was mixed at 4° C. for 16 hours with a Benzamidine Sepharose 4 Fast Flow Resin (GE Healthcare: #17-5123-10). After washing the resin with PBS, m-trypsin was eluted with a glycine elution buffer (pH 3.0).
as §3, §4, §5

Turning to `N=C(N)Nc1ccc(C(=O)Oc2ccc(CC(=O)N[C@@H](Cc3ccc(OCC(=O)O)cc3)C(=O)O)c(Cl)c2)cc1` [Example 56], in assay [1], the response vs control in vivo at 5 mg/kg amounted to 202%. For the same compound, the pIC50 was 9.06 in assay [2] and 9.19 in assay [3]. `N=C(N)Nc1ccc(C(=O)Oc2ccc(CCC(=O)NC(Cc3ccccc3)C(=O)O)c(Cl)c2)cc1` (stereo not shown) [Example 131]: the pIC50 was 9.29 in assay [2] and 9.40 in assay [3]. Take `N=C(N)Nc1ccc(C(=O)Oc2ccc(CCC(=O)N(CC(=O)O)Cc3csc(C(=O)O)c3)c(Cl)c2)cc1` [Example 63]: in assay [1] (po, 9 h), the response vs control in vivo at 5 mg/kg stood at 184%. In the case of `N=C(N)Nc1ccc(C(=O)Oc2ccc(CC(=O)N[C@@H](Cc3cccc(F)c3)C(=O)O)c(Cl)c2)cc1` [Example 30], the pIC50 in assay [2] is 9.59; in assay [3], 9.72.

`CN(C(=O)Cc1ccc(OC(=O)c2ccc(NC(=N)N)cc2)cc1Cl)[C@@H](Cc1ccccc1)C(=O)O` [Example 33]: the negative logarithm of the IC50 (pIC50) is 9.06 in assay [2] and 9.22 in assay [3]. The like results for `N=C(N)Nc1ccc(C(=O)Oc2ccc(CC(=O)N(CC(=O)O)[C@@H](Cc3ccccc3)C(=O)O)c(Cl)c2)cc1` [Example 40] were, in that order, 9.30 and 9.35.

Regarding `N=C(N)Nc1ccc(C(=O)Oc2ccc3nc(C(=O)Nc4ccc(CC(=O)O)cc4)ccc3c2)cc1` [Example 22], the pIC50 in assay [2] was 9.54; in assay [3], 9.70. The like results for `N=C(N)Nc1ccc(C(=O)Oc2ccc(CC(=O)N[C@@H](Cc3ccccc3)C(=O)O)c(-c3ccccc3)c2)cc1` [Example 17] were, in that order, 9.37 and 9.57.

As for `C[C@H](C(=O)O)N(Cc1csc(C(=O)O)c1)C(=O)c1ccc2cc(OC(=O)c3ccc(NC(=N)N)cc3)ccc2n1` [Example 102], the response vs control in vivo at 5 mg/kg in assay [1] stood at 231%. The pIC50 in assay [2] was 9.54; in assay [3], 9.52. For the compound `CC(C)(Oc1ccc(C[C@H](NC(=O)Cc2ccc(OC(=O)c3ccc(NC(=N)N)cc3)cc2Cl)C(=O)O)cc1)C(=O)O` [Example 95], the response vs control in vivo at 5 mg/kg in assay [1] is 188%. Also, the pIC50 in assay [2] is 9.18; in assay [3] it was 9.19. Regarding `CC(C)(Oc1ccc(C[C@H](NC(=O)CCc2ccc(OC(=O)c3ccc(NC(=N)N)cc3)cc2Cl)C(=O)O)cc1)C(=O)O` [Example 96], the response vs control in vivo at 5 mg/kg in assay [1] was determined as 202%. The pIC50 is 9.66 in assay [2] and 9.34 in assay [3]. As for `N=C(N)Nc1ccc(C(=O)Oc2cc(Cl)c(CC(=O)N[C@@H](Cc3ccccc3)C(=O)O)c(Cl)c2)cc1` [Example 27], the pIC50 in assay [2] was 9.59; in assay [3], 9.72. The like results for `N=C(N)Nc1ccc(C(=O)Oc2ccc(CCCCC(=O)N[C@@H](Cc3ccccc3)C(=O)O)c(Cl)c2)cc1` [Example 37] were, in that order, 9.42 and 9.47.

As to `N=C(N)Nc1ccc(C(=O)Oc2ccc(CCC(=O)N(CC(=O)O)Cc3cc(C(=O)O)cc(C(=O)O)c3)c(Cl)c2)cc1` [Example 64], the response vs control in vivo at 5 mg/kg in assay [1] is 198%. Also, the values for the pIC50 in assay [2] and in assay [3] were 9.43 and 9.15, respectively. In the case of `N=C(N)Nc1ccc(C(=O)Oc2ccc(CC(=O)N[C@@H](Cc3ccc(C(F)(F)F)cc3)C(=O)O)c(Cl)c2)cc1` [Example 31], the pIC50 in assay [2] is 9.51; in assay [3], 9.47. For the compound `N=C(N)Nc1ccc(C(=O)Oc2ccc(CC(=O)N[C@@H](Cc3ccc(Cl)cc3)C(=O)O)c(Cl)c2)cc1` [Example 15], the response vs control in vivo at 5 mg/kg in assay [1] (po, 9 h) worked out at 167%.

For the compound `N=C(N)Nc1ccc(C(=O)Oc2cc(F)c(CC(=O)N[C@@H](Cc3ccccc3)C(=O)O)c(F)c2)cc1` [Example 24], the pIC50 in assay [2] was 9.68; in assay [3] it was 9.77. `N=C(N)Nc1ccc(C(=O)Oc2ccc3cc(C(=O)N[C@@H](Cc4ccccc4)C(=O)O)[nH]c3c2)cc1` [Example 119]: the response vs control in vivo at 5 mg/kg in assay [1] (po, 9 h) was 139%. As for `N=C(N)Nc1ccc(C(=O)Oc2ccc(CC(=O)N[C@@H](Cc3ccc(O)cc3)C(=O)O)c(Cl)c2)cc1` [Example 1, N-({4-[(4-carbamimidamidobenzoyl)oxy]-2-chlorophenyl}acetyl)-L-tyrosine hydrochloride], the pIC50 is 9.77 in assay [2] and 9.72 in assay [3]. Take `N=C(N)Nc1ccc(C(=O)Oc2ccc(CCN(CC(=O)O)C(=O)Cc3cccc(C(=O)O)c3)c(Cl)c2)cc1` [Example 66]: the figures for the pIC50 in assay [2] and in assay [3] were 9.46 and 9.35, respectively. The like results for `N=C(N)Nc1ccc(C(=O)Oc2ccc(CC(=O)N(CCC(=O)O)[C@@H](Cc3ccccc3)C(=O)O)c(Cl)c2)cc1` [Example 54] were, in that order, 9.38 and 9.42. `N=C(N)Nc1ccc(C(=O)Oc2ccc(CC(=O)N(CCc3ccccc3)CC(=O)O)c(Cl)c2)cc1` [Example 35]: the pIC50 in assay [2] was 9.36; in assay [3] it was 9.55. The like results for `N=C(N)Nc1ccc(C(=O)Oc2ccc(CCN(CC(=O)O)Cc3cccc(C(=O)O)c3)c(Cl)c2)cc1` [Example 65] were, in that order, 9.40 and 9.35. `N=C(N)Nc1ccc(C(=O)Oc2ccc(CC(=O)N[C@@H](Cc3ccccc3F)C(=O)O)c(Cl)c2)cc1` [Example 29]: the figures for the pIC50 in assay [2] and in assay [3] were 9.51 and 9.68, respectively. On to `N=C(N)Nc1ccc(C(=O)Oc2ccc3nc(C(=O)N(CC(=O)O)Cc4ccc(CC(=O)O)cc4)ccc3c2)cc1` [Example 113], for which the response vs control in vivo at 5 mg/kg in assay [1] (po, 9 h) amounted to 193%. Regarding `N=C(N)Nc1ccc(C(=O)Oc2ccc(CCC(=O)Nc3ccc(CC(=O)O)cc3)c(Cl)c2)cc1` [Example 11], the pIC50 is 9.12 in assay [2] and 9.35 in assay [3]. As to `N=C(N)Nc1ccc(C(=O)Oc2ccc3nc(C(=O)N[C@@H](Cc4ccc(OCC(=O)O)cc4)C(=O)O)ccc3c2)cc1` [Example 71], the pIC50 in assay [2] was 9.74; in assay [3], 9.64.

As to `N=C(N)Nc1ccc(C(=O)Oc2ccc(CCC(=O)N(CC(=O)O)Cc3ccccc3)c(Cl)c2)cc1` [Example 62], the pIC50 in assay [2] was 9.54; in assay [3] it was 9.77. Turning to `N=C(N)Nc1ccc(C(=O)Oc2ccc(CCCC(=O)N(CC(=O)O)Cc3cccc(C(=O)O)c3)c(Cl)c2)cc1` [Example 51], the pIC50 is 9.34 in assay [2] and 9.33 in assay [3]. The like results for `N=C(N)Nc1ccc(C(=O)Oc2ccc(CC(=O)N[C@@H](Cc3c[nH]cn3)C(=O)O)c(Cl)c2)cc1` [Example 2, N-({4-[(4-carbamimidamidobenzoyl)oxy]-2-chlorophenyl}acetyl)-L-histidine 2 hydrochloride] were, in that order, 9.04 and 9.31. With `N=C(N)Nc1ccc(C(=O)Oc2ccc(CCC(=O)N(Cc3cccc(C(=O)O)c3)Cc3cccc(C(=O)O)c3)c(Cl)c2)cc1` [Example 93], the figures for the pIC50 in assay [2] and in assay [3] were 9.40 and 9.25, respectively. Regarding `N=C(N)Nc1ccc(C(=O)Oc2ccc(CC(=O)N[C@@H](Cc3ccccc3)C(=O)O)c(C(F)(F)F)c2)cc1` [Example 25], the pIC50 in assay [2] is 9.54; in assay [3] it was 9.60. For `CN(C(=O)CN(CC(=O)O)Cc1cccc(C(=O)O)c1)c1ccc(OC(=O)c2ccc(NC(=N)N)cc2)cc1Cl` [Example 94], the negative-log IC50 (pIC50) in assay [2] was 9.38; in assay [3], 9.41. Consider `N=C(N)Nc1ccc(C(=O)Oc2ccc(CCC(=O)N(CC(=O)O)c3cccc(CC(=O)O)c3)c(Cl)c2)cc1` [Example 41], for which the response vs control in vivo at 5 mg/kg in assay [1] (po, 9 h) was 177%. The same measure, in the same setting: with `COc1ccc(C[C@H](NC(=O)Cc2ccc(OC(=O)c3ccc(NC(=N)N)cc3)cc2Cl)C(=O)O)cc1` [Example 16] the figure was 170%. Regarding `N=C(N)Nc1ccc(C(=O)Oc2ccc(CC(=O)N[C@@H](Cc3ccccc3)C(=O)O)c(C3CC3)c2)cc1` [Example 34], the pIC50 in assay [2] was 9.44; in assay [3], 9.62.

For the compound `N=C(N)Nc1ccc(C(=O)Oc2ccc(CC(=O)N[C@@H](Cc3ccccc3)C(=O)O)c(Cl)c2Cl)cc1` [Example 26], the pIC50 in assay [2] was 9.54; in assay [3], 9.74.
